For seven compounds, EC50 and Ki results are on record in patent US8895592B2, “Compounds as cannabinoid receptor ligands” (priority 2008, dated 2014).

In assay [1] the target is T1, rat CB2 receptors (Rattus norvegicus (Rat), UniProt Q9QZN9). Kind of assay: rat CB2 cyclase functional assay (HitHunter cAMP). The assay is classed as cell-based. The settings on record: HEK cells, forskolin 18 μM. On the procedure:
The cyclase functional assays were performed using the HitHunter™ cAMP assay kit from DiscoveRx (Fremont, Calif.) according to vendor's protocol. Briefly, HEK cells expressing CB2 or CB1 receptors (rat or human) were detached using cell dissociation buffer (Invitrogen, Carlsbad, Calif.), dispersed and placed in suspension at 10,000 cells per well in 96 well plates prior to the assay. Cell suspensions were incubated at 37° C. for 20 min with variable concentrations of test ligands and or 10 μM CP 55,940-positive control in the presence of a fixed concentration of forskolin (18 μM for rat CB2 and 37 μM for rat CB1) in Dulbescco's phosphate-buffered saline (Invitrogen, Carlsbad, Calif.) supplemented with bovine serum albumin (0.01% final concentration). The reactions were terminated by the addition of lysis buffer and the luminescence was detected following the procedure according to the manufacturer's instructions. EC50 values were calculated using sigmoidal dose-response curve fitting from Prism (GraphPad).

For assay [2], the target named is T1, rat CB2 receptors. Description: rat CB2 radioligand binding assay ([3H]CP 55,940 competition). The following applies: HEK293 membranes, 0.5 nM [3H]CP 55,940. On the procedure: HEK293 cells stably expressing rat CB2 receptors were grown until a confluent monolayer was formed. Briefly, the cells were harvested and homogenized in TE buffer (50 mM Tris-HCl, 1 mM MgCl2, and 1 mM EDTA) using a polytron for 2×10 second bursts in the presence of protease inhibitors, followed by centrifugation at 45,000×g for 20 minutes. The final membrane pellet was re-homogenized in storage buffer (50 mM Tris-HCl, 1 mM MgCl2, and 1 mM EDTA and 10% sucrose) and frozen at −78° C. until used. Saturation binding reactions were initiated by the addition of membrane preparation (protein concentration of 20 μg/well for rat CB2) into wells of a deep well plate containing [^3H]CP 55,940 (120 Ci/mmol, a nonselective CB agonist commercially available from Tocris) in assay buffer (50 mM Tris, 2.5 mM EDTA, 5 mM MgCl2, and 0.5 mg/mL fatty acid free BSA, pH 7.4). After 45 min incubation at 30° C., binding reaction was terminated by the addition of 300 μl/well of cold assay buffer followed by rapid vacuum filtration through a UniFilter-96 GF/C filter plates (pre-soaked in 1 mg/mL BSA for 2 hours). The bound activity was counted in a TopCount using Microscint-20. Saturation experiments were conducted with twelve concentrations of [^3H]CP 55,940 ranging from 0.01 to 8 nM. Competition experiments were conducted with 0.5 nM [^3H]CP 55,940 and five concentrations of displacing ligands selected from the range of 0.01 nM to 10 μM. The addition of 10 μM unlabeled CP 55,940 (Tocris, Ellisville, Mo.) was used to assess nonspecific binding.

The target of another assay is human CB2 receptors (Homo sapiens (Human), UniProt P34972). Description: human CB2 radioligand binding assay ([3H]CP 55,940 competition). The following applies: HEK293 membranes, 0.5 nM [3H]CP 55,940. On the procedure: HEK293 cells stably expressing human CB2 receptors were grown until a confluent monolayer was formed. Briefly, the cells were harvested and homogenized in TE buffer (50 mM Tris-HCl, 1 mM MgCl2, and 1 mM EDTA) using a polytron for 2×10 second bursts in the presence of protease inhibitors, followed by centrifugation at 45,000×g for 20 minutes. The final membrane pellet was re-homogenized in storage buffer (50 mM Tris-HCl, 1 mM MgCl2, and 1 mM EDTA and 10% sucrose) and frozen at −78° C. until used. Saturation binding reactions were initiated by the addition of membrane preparation (protein concentration of 5 μg/well for human CB2) into wells of a deep well plate containing [^3H]CP 55,940 (120 Ci/mmol, a nonselective CB agonist commercially available from Tocris) in assay buffer (50 mM Tris, 2.5 mM EDTA, 5 mM MgCl2, and 0.5 mg/mL fatty acid free BSA, pH 7.4). After 90 min incubation at 30° C., binding reaction was terminated by the addition of 300 μL/well of cold assay buffer followed by rapid vacuum filtration through a UniFilter-96 GF/C filter plates (pre-soaked in 1 mg/mL BSA for 2 hours). The bound activity was counted in a TopCount using Microscint-20. Saturation experiments were conducted with twelve concentrations of [^3H]CP 55,940 ranging from 0.01 to 8 nM. Competition experiments were conducted with 0.5 nM [^3H]CP 55,940 and five concentrations (0.01 nM to 10 μM) of displacing ligands. The addition of 10 μM unlabeled CP 55,940 (Tocris, Ellisville, Mo.) was used to assess nonspecific binding.
Chain of human CB2 receptors (P34972 whole entry): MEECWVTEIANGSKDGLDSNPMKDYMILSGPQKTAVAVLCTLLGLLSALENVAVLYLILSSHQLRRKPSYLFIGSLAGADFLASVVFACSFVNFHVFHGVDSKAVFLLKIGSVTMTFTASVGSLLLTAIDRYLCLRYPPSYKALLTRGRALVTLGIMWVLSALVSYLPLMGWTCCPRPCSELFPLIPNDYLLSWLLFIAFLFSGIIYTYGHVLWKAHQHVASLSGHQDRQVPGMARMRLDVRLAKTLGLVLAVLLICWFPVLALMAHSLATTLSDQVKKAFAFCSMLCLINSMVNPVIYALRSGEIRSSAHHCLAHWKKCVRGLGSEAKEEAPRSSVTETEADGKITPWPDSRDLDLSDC

T1 sequence (Q9QZN9 whole entry): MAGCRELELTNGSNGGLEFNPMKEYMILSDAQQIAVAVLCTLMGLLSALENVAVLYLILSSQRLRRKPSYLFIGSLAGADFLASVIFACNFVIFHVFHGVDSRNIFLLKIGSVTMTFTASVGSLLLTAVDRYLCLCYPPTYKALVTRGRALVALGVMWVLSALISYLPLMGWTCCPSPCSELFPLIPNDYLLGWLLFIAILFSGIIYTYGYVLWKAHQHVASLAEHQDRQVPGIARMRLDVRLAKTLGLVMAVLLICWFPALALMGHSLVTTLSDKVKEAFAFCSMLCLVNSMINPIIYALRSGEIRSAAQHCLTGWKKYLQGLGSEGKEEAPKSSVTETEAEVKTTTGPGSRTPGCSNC

For the compound `CC(C)Cn1cc(C(C)(C)C)s/c1=N\C(=O)c1cc(C(F)(F)F)ccc1OC[C@@H]1CCN1` [Example 14, 2-[(2S)-azetidin-2-ylmethoxy]-N-[(2Z)-5-tert-butyl-3-isobutyl-1,3-thiazol-2(3H)-ylidene]-5-(trifluoromethyl)benzamide], the EC50 at rat CB2 receptors [1] is 0.36 nM. The inhibition constant (Ki) turned out to be 13 nM at rat CB2 receptors [2] and 44 nM at human CB2 receptors.

For the compound `CC(C)Cn1cc(C(C)(C)C)s/c1=N\C(=O)c1cc(C(F)(F)F)ccc1OCC1CCOC1` (stereo not drawn) [Example 8, N-[(2Z)-5-tert-butyl-3-isobutyl-1,3-thiazol-2(3H)-ylidene]-2-(tetrahydrofuran-3-ylmethoxy)-5-(trifluoromethyl)benzamide], on rat CB2 receptors [1], the EC50 was 0.058 nM. Also, the inhibition constant (Ki) at rat CB2 receptors [2] worked out at 2.4 nM; on human CB2 receptors, 5 nM.

As for `CC(C)Cn1cc(C(C)(C)C)s/c1=N\C(=O)c1cc(Br)ccc1OC[C@@H]1CCCN1C` [Example 1, 5-bromo-N-[(2Z)-5-tert-butyl-3-isobutyl-1,3-thiazol-2(3H)-ylidene]-2-{[(2S)-1-methylpyrrolidin-2-yl]methoxy}benzamide], the EC50 on rat CB2 receptors [1] came out at 0.75 nM. Besides, the Ki was 19 nM at rat CB2 receptors [2] and 27 nM on human CB2 receptors.

In the case of `CCCCn1/c(=N/C(=O)c2cc(C(F)(F)F)ccc2OCC(C)(C)O)sc2ccncc21` [Example 21, N-[(2Z)-3-butyl[1,3]thiazolo[4,5-c]pyridin-2(3H)-ylidene]-2-(2-hydroxy-2-methylpropoxy)-5-(trifluoromethyl)benzamide], the EC50 at rat CB2 receptors [1] was 0.58 nM. For the same compound, the figures for the inhibition constant (Ki) on rat CB2 receptors [2] and at human CB2 receptors were 9.3 nM and 5.4 nM, respectively.

For `CC(C)Cn1cc(C(C)(C)C)s/c1=N\C(=O)c1cc(C(F)(F)F)ccc1OCCO` [Example 19, N-[(2Z)-5-tert-butyl-3-isobutyl-1,3-thiazol-2(3H)-ylidene]-2-(2-hydroxyethoxy)-5-(trifluoromethyl)benzamide], the EC50 on rat CB2 receptors [1] was determined as 0.13 nM. Further, the results for the inhibition constant (Ki) at rat CB2 receptors [2] and at human CB2 receptors were 0.15 nM and 0.73 nM, respectively.

`CCCCn1/c(=N/C(=O)c2cc(C(F)(F)F)ccc2OC[C@H](C)O)sc2ccncc21` [Example 29, N-[(2Z)-3-butyl[1,3]thiazolo[4,5-c]pyridin-2(3H)-ylidene]-2-{[(2S)-2-hydroxypropyl]oxy}-5-(trifluoromethyl)benzamide]: the EC50 on rat CB2 receptors [1] was found to be 1.4 nM. Besides, the Ki at rat CB2 receptors [2] is 2.5 nM; at human CB2 receptors it was 2 nM.

On to `CC(C)Cn1cc(C(C)(C)C)s/c1=N\C(=O)c1cc(C(F)(F)F)ccc1OCc1ccco1` [Example 3, N-[(2Z)-5-tert-butyl-3-isobutyl-1,3-thiazol-2(3H)-ylidene]-2-(2-furylmethoxy)-5-(trifluoromethyl)benzamide], for which the EC50 on rat CB2 receptors [1] amounted to 1.9 nM. In addition, the results for the Ki on rat CB2 receptors [2] and at human CB2 receptors were 8.7 nM and 7.4 nM, respectively.
